In paper PMC10519361, “Shigella flexneri utilizes intestinal signals to control its virulence” (Gut Microbes, 2023):

What follows are compounds tested against T1, VirF (Shigella flexneri, UniProt P0A2T1) (assay: ELISA, fatty acid coated on plate, His-VirF detected by anti-His antibody). Details: read-out: apparent Kd.
T1 construct: full ORF in pET15b, His-tagged (tag apparently kept)
T1 sequence (P0A2T1 whole entry): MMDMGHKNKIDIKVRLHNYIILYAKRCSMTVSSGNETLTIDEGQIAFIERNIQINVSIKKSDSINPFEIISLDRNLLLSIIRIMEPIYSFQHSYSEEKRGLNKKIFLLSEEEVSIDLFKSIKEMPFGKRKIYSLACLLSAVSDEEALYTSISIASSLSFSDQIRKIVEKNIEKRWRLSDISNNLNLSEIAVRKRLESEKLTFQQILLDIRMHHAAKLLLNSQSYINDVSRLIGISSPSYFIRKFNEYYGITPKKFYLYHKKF
Type: binding
In the case of CCCCCCCC/C=C\CCCCCCCC(=O)O [oleic acid], the Kd is reported as 14.3 µM. CCCCCCCCCCCCCCCCC/C=C\C(=O)O [c2-EA] gave a Kd of 11.2 µM. For CCCCCC/C=C\CCCCCCCC(=O)O [palmitoleic acid], the Kd was 12.9 µM. CCCCCCCCCCCCC/C=C/C(=O)O [t2-HDA] was tested, and the Kd was 9.5 µM. In the case of CCCCCCCCCCCCC/C=C\C(=O)O [c2-HDA], the Kd is reported as 8.2 µM.
